Experiment [1] has as its system Trypanosoma cruzi. In words: Antitrypanosomal activity against Trypanosoma cruzi Y trypomastigotes assessed as lysis of trypomastigotes at 250 ug/ml after 24 hrs at 4 degC. In kind it is functional.
In experiment [2] the test system is Leishmania braziliensis. The experiment can be described thus: Antileishmanial activity against Leishmania braziliensis 2903 promastigotes assessed as immobilized parasites at 100 ug/ml after 24 hrs at 28 degC. The format is functional, organism-based.
Experiment [3] relates to Leishmania donovani. In words: Antileishmanial activity against Leishmania donovani PP75 promastigotes assessed as total lysis of parasites at 100 ug/ml after 24 hrs at 28 degC. In kind it is functional, organism-based.
The test system of experiment [4] is Leishmania amazonensis. In words: Antileishmanial activity against Leishmania amazonensis H142 promastigotes assessed as total lysis of parasites at 100 ug/ml after 24 hrs at 28 degC. In kind it is functional, organism-based.
The test system of experiment [5] is Leishmania braziliensis. The experiment can be described thus: Antileishmanial activity against Leishmania braziliensis 2903 promastigotes assessed as total lysis of parasites at 100 ug/ml after 24 hrs at 28 degC. The format is functional, organism-based.
Experiment [6] concerns Leishmania braziliensis. In words: Antileishmanial activity against Leishmania braziliensis 2903 promastigotes assessed as total lysis of parasites at 50 ug/ml after 24 hrs at 28 degC. The format is functional, organism-based.
Experiment [7] relates to Leishmania donovani. In words: Antileishmanial activity against Leishmania donovani PP75 promastigotes assessed as total lysis of parasites at 50 ug/ml after 24 hrs at 28 degC. In kind it is functional, organism-based.
Experiment [8] deals with Leishmania amazonensis. In words: Antileishmanial activity against Leishmania amazonensis promastigotes assessed as total lysis of parasites at 50 ug/ml after 24 hrs at 28 degC. In kind it is functional, organism-based.
Experiment [9] has as its system Leishmania braziliensis. In words: Antileishmanial activity against Leishmania braziliensis 2903 promastigotes assessed as total lysis of parasites at 25 ug/ml after 24 hrs at 28 degC. The format is functional, organism-based.
The test system of experiment [10] is Leishmania donovani. In words: Antileishmanial activity against Leishmania donovani PP75 promastigotes assessed as total lysis of parasites at 25 ug/ml after 24 hrs at 28 degC. The format is functional, organism-based.
Experiment [11] deals with Leishmania amazonensis. The experiment can be described thus: Antileishmanial activity against Leishmania amazonensis promastigotes assessed as total lysis of parasites at 25 ug/ml after 24 hrs at 28 degC. In kind it is functional, organism-based.
Experiment [12] relates to Leishmania braziliensis. In words: Antileishmanial activity against Leishmania braziliensis 2903 promastigotes assessed as immobilized parasites at 10 ug/ml after 24 hrs at 28 degC. The format is functional, organism-based.
Experiment [13] deals with Leishmania donovani. The experiment can be described thus: Antileishmanial activity against Leishmania donovani PP75 promastigotes assessed as immobilized parasites at 10 ug/ml after 24 hrs at 28 degC. The format is functional, organism-based.
The subject of experiment [14] is Leishmania amazonensis. The experiment can be described thus: Antileishmanial activity against Leishmania amazonensis promastigotes assessed as immobilized parasites at 10 ug/ml after 24 hrs at 28 degC. In kind it is functional, organism-based.
Experiment [15] deals with Leishmania braziliensis. The experiment can be described thus: Antileishmanial activity against Leishmania braziliensis 2903 promastigotes assessed as lysis of parasites at 10 ug/ml after 24 hrs at 28 degC. The format is functional.
The test system of experiment [16] is Leishmania donovani. The experiment can be described thus: Antileishmanial activity against Leishmania donovani PP75 promastigotes assessed as lysis of parasites at 10 ug/ml after 24 hrs at 28 degC. The format is functional.
Experiment [17] relates to Leishmania amazonensis. In words: Antileishmanial activity against Leishmania amazonensis promastigotes assessed as lysis of parasites at 10 ug/ml after 24 hrs at 28 degC. In kind it is functional.

The source made the active and inactive calls. The calls are words filed in the database; no cut-off is given here.

For the compound `CC(C)=CCC/C(C)=C/CC/C(C)=C/Cc1c(O)cc(C)c(C(=O)O)c1O` [GRIFOLIC ACID], the Activity in [1] is on record as 0%. Moreover, the outcome in experiment [2], in experiment [3] and in [4] was Active.

As for `CC(C)=CCC/C(C)=C/CC/C(C)=C/Cc1c(O)cc(C)cc1O` [GRIFOLIN], in experiment [1], the Activity worked out at 68%. For the same compound, the result in experiment [5], in experiment [6], in experiment [7], in [8], in [9] and in [10] was Active. Further, the outcome in experiment [11], in [12], in [13], in [14], in experiment [3] and in experiment [4] was Active.

With `CC(C)=CCC/C(C)=C/Cc1c(O)cc(C)c(CC=C(C)C)c1O` [PIPEROGALIN], the Activity is given as 42% in experiment [1], more than 90% in experiment [15], more than 90% in [16] and more than 90% in experiment [17]. The result in experiment [5], in experiment [7], in experiment [8], in [9], in experiment [10] and in experiment [11] was Active. In addition, the result in experiment [3] and in experiment [4] was Active.

The values are drawn from ChEMBL document CHEMBL1159227, “Piperogalin, a new prenylated diphenol from Peperomia galioides” (1995).
